# Test results: article PMC9649909, “Wnt-pathway inhibitors with selective activity against triple-negative breast cancer: From thienopyrimidine to quinazoline inhibitors” (Frontiers in Pharmacology, 2022)
# Entries after “also recorded” stand apart in the source; their conditions may differ. Like-named read-outs stand apart in the source and are kept apart here.
# Assays:
# HCC1806 TNBC cell line = assay: MTT survival assay HCC1806; assay type: cell-based; conditions: for IC50: Homo sapiens, HCC1806
# Protocol: (§1) Indicated TNBC cell lines were detached and resuspended at 120,000 cells/ml and added into each well of a transparent 384-well plate in the final volume of 20 µl/well. The cells were maintained in DMEM containing 10% FBS at 37°C, 5% CO2 overnight. Next day, the medium in each well was replaced by 40 μl of the fresh one containing the indicated concentrations of compounds. In case of drug combination experiments, each compound dilution was delivered in corresponding well in 20 μl of medium. […] After incubation for 3–4 days, depending on the cell line, the medium in each well was replaced by 25 μl of 0.5 mg/ml Thiazolyl blue solution in 1xPBS following by incubation for 3 h at 37°C. Then the solution was removed and 25 μl DMSO was added into each well. Absorbance at 510 nm was measured in a Tecan Infinite M200 PRO plate reader.
# BT-20 TNBC cell line = assay: MTT survival assay BT-20; assay type: cell-based; conditions: Homo sapiens, BT-20
# Protocol: as §1
# [1] = test system: MDA-MB-468 TNBC cell line; assay: MTT survival assay MDA-MB-468; assay type: cell-based; conditions: Homo sapiens, MDA-MB-468; Table S2
# Protocol: as §1
# in vitro = conditions: human
# HCC1395 cells = assay: in vitro; conditions: for HCC1395 Cytotoxicity Efficacy: human
# HCC1395 TNBC cell line = assay: MTT survival assay HCC1395; assay type: cell-based; conditions: Homo sapiens, HCC1395; Table S2; read-out: MTT HCC-1395 IC50
# Protocol: as §1
# [2] = test system: non-cancerous breast epithelial cell line MCF10a; assay: MTT survival assay MCF10a; assay type: cell-based; conditions: for IC50: Homo sapiens, MCF-10A
# Protocol: as §1
# TNBC cell proliferation = assay: Loewe synergism with docetaxel in anti-proliferative assay (COMBENEFIT); assay type: cell-based; conditions: Loewe model
# Source text: The Wnt-pathway is implicated in chemoresistance to conventional chemotherapies and drives a poor chemotherapy response in a broad range of tumors ([O’Reilly et al., 2015]; [Martin-Orozco et al., 2019]; [Zhong and Virshup, 2020]). To assess how combination with our compounds affects the anti-proliferative capacity of docetaxel—one of the first-line treatments for TNBC ([Mandapati and Lukong, 2022]), we performed the Loewe synergism assessment over a complete dose-response range of both compounds followed by analysis in the COMBENEFIT software in Matlab (Figure 7 and Supplementary Figure S1) ([Di Veroli et al., 2016]).
# as §1
# The data was visualized analyzed in either GraphPad Prism nine using indicated statistical analysis or in R using gplots package ([Warnes et al., 2009]). Dataset from CCLE ([Barretina et al., 2012]) were used in the study and pathway enrichment analysis was performed by DAVID online tool ([Sherman et al., 2022]). Drug combination data was treated in COMBENEFIT software ([Di Veroli et al., 2016]). Network was built using Cytoscape with StringDB plugin ([Shannon et al., 2003]; [Szklarczyk et al., 2021]).
# [3] = test system: β-catenin-dependent Wnt-pathway; assay: TopFlash luciferase reporter assay, CHIR99021-stimulated, HCC1395; assay type: cell-based; conditions: for Emax / IC50: Homo sapiens, HCC1395, HCC1395, stimulation with CHIR99021 (GSK3β inhibitor); for Emax: read-out: HCC1395 TopFlash Efficacy; for IC50: read-out: HCC1395 TopFlash IC50
# [4] = test system: MDA-MB-231 TNBC cell line; assay: MTT survival assay MDA-MB-231; assay type: cell-based; conditions: for IC50: Homo sapiens, MDA-MB-231
# Protocol: as §1
# [5] = test system: β-catenin-dependent Wnt-pathway; assay: TopFlash luciferase reporter assay, Wnt3a-stimulated, HCC1395; assay type: cell-based; conditions: Homo sapiens, stimulation with Wnt3a
# Source text: The advantage of our platform lies in its ability to discriminate between inhibitors of the β-catenin-dependent Wnt signaling acting at upstream vs. downstream levels of the pathway, by stimulating the pathway at the different levels either with Wnt3a or with a GSK3β inhibitor, like CHIR99021 ([Shaw et al., 2019b]). Both stimulations abolish formation of the destruction complex, a multiprotein complex consisting of Axin, adenomatous polyposis coli (APC), glycogen synthase kinase three beta (GSK3β), and casein kinase one alpha (CK1α). Upon inactivation of the complex, β-catenin accumulates in the cytoplasm and translocates into the nucleus where it interacts with transcription factors. These downstream events are quantified by a Luciferase transcription-based readout assay (TopFlash assay).
# [6] = test system: panel of luciferase reporters with basal activities in HCC1395 cells; assay: Panel of other luciferase transcriptional reporters in HCC1395; assay type: cell-based; conditions: HCC1395, 5 µM
# Protocol: Compound 5d (IC50 = 0.6 µM, Table 2) was used as a representative to analyze the selectivity of the chemotype towards the Wnt-pathway, by profiling it against a panel of different transcriptional reporters with significant basal activities in HCC1395 cells (Figure 5). […] We thus conclude that the anti-proliferative effect of the compound is related exclusively to the suppressed Wnt signaling.
# [7] = Figure 3B heatmap, read-out: IC50, μM (HCC1806)
# [8] = Table S2, read-out: MTT HCC1806 IC50
# [9] = Table S2, read-out: MTT BT-20 IC50
# [10] = Figure 3B heatmap, read-out: IC50, μM (MCF10)
# [11] = Table S2, read-out: MTT MCF10 IC50
# [12] = Table S2, read-out: MTT MDA-MB-231 IC50
# [13] = Figure 3B heatmap, read-out: IC50, μM (MDA-MB-231)
SMILES,IC50 (HCC1806 TNBC cell line; [7]),IC50 (HCC1806 TNBC cell line; [8]),IC50 (BT-20 TNBC cell line; [9]),IC50 [1],IC50 (in vitro; HCC1395 Cytotoxicity IC50),HCC1395 Cytotoxicity Efficacy (HCC1395 cells),IC50 (HCC1395 TNBC cell line),"IC50 [2, 10]","IC50 [2, 11]",effect of co-treatment with docetaxel (TNBC cell proliferation),Emax [3],IC50 [3],"IC50 [4, 12]",GSK HCC1395 Renilla Comments (HCC1395 cells),MTT MCF10 Comments ([2]; Table S2),MTT MDA-MB-231 Comments ([4]; Table S2),other results
"COc1cc(CNc2ncnc3sccc23)ccc1F [Compound 4p, N-(4-fluoro-3-methoxybenzyl)thieno[2,3-d]pyrimidin-4-amine]",> 10 µM,> 50 µM,> 50 µM,> 50 µM,4.04 µM,41.8%,13.6 µM,> 10 µM,> 50 µM,exclusively synergistic effects,71.4 ± 11.1%,2.59 ± 1.08 µM,> 50 µM,–,–,–,GSK HCC1395 Comments ([3]; Table S2): Toxic
"COc1ccccc1C(C)Nc1ncnc2sccc12 (stereo not shown) [Compound 5a, N-(1-(2-methoxyphenyl)ethyl)thieno[2,3-d]pyrimidin-4-amine]",> 50 µM,> 10 µM,4.08 µM,0.1 µM,> 50 µM,–,0.12 µM,–,> 10 µM,exclusively synergistic effects,46.1 ± 3.44%,0.77 ± 0.44 µM,> 10 µM,Non-toxic,Inactive,Inactive,MTT HCC1806 Comments (HCC1806 TNBC cell line; Table S2): Inactive
"c1ccc(CNc2ncnc3sccc23)cc1 [Compound 4a, N-benzylthieno[2,3-d]pyrimidin-4-amine]",–,2.33 µM,16.3 µM,2.13 µM,–,–,2.52 µM,–,> 10 µM,–,72%,8.47 µM,19.2 µM,–,Inactive,–,IC50 (in vitro): > 50 µM; Cytotoxicity (Renilla) in words (HCC1395 cells; HCC1395): not toxic; also recorded: no cytotoxic activity; GSK HCC1395 Renilla Comments (HCC1395 cells; Table S2): Non-toxic; IC50 [5]: 8.31 µM; MTT MDA-MB-231 plateau ([4]; Table S2): 100
"Cc1ccc(CNc2ncnc3ccccc23)cc1 [Compound 9f, N-(4-methyl)quinazolin-4-amine]",–,23.4 µM,6.08 µM,0.83 µM,8.13 ± 3.8 µM,100 ± 0%,1.07 µM,–,9.42 µM,exclusively synergistic effects,51.6 ± 7.9%,1.22 ± 0.33 µM,> 10 µM,–,–,Inactive,–
"CC(Nc1ncnc2sccc12)c1ccc(Cl)cc1 (stereo not shown) [Compound 5d, N-(1-(4-chlorophenyl)ethyl)thieno[2,3-d]pyrimidin-4-amine]",> 50 µM,9.12 µM,6.89 µM,1.67 µM,24 ± 4.98 µM,100 ± 0%,0.39 µM,> 10 µM,6.48 µM,–,55.4 ± 24.3%,0.6 ± 0.33 µM,> 10 µM,–,–,Inactive,"IC50 (BT-20 TNBC cell line; Figure 3B heatmap, no activity up to maximal tested concentration, read-out: IC50, μM (BT20)): > 50 µM; inhibition of other signaling pathway reporters [6]: none other signaling pathways are affected; also recorded: no inhibition"
"Cc1ccc(C(C)Nc2ncnc3ccccc23)cc1 (stereo not shown) [Compound 9i, N-(1-(p-tolyl)ethyl)quinazolin-4-amine]",–,–,–,–,10.3 ± 2.06 µM,38.7 ± 12.8%,–,–,–,exclusively synergistic effects,54.6 ± 2.9%,1.88 ± 0.28 µM,–,–,–,–,–
"Clc1ccc(CCNc2ncnc3sccc23)cc1 [Compound 5m, N-(4-chlorophenethyl)thieno[2,3-d]pyrimidin-4-amine]",–,13.1 µM,6.72 µM,8.46 µM,> 50 µM,–,3.7 µM,> 10 µM,> 50 µM,exclusively synergistic effects,82 ± 21.1%,1.79 ± 1.45 µM,> 50 µM,Non-toxic,Inactive,–,"IC50 [4, 13]: > 10 µM"
"Fc1ccc(CNc2ncnc3ccccc23)cc1 [Compound 9d, N-(4-fluoro)quinazolin-4-amine]",–,> 10 µM,2.92 µM,0.8 µM,> 50 µM,–,1.15 µM,–,12.5 µM,exclusively synergistic effects,87.1 ± 4.09%,0.67 ± 0.13 µM,> 10 µM,–,–,Inactive,MTT HCC1806 Comments (HCC1806 TNBC cell line; Table S2): Inactive
"Clc1ccccc1CCNc1ncnc2sccc12 [Compound 5k, N-(2-chlorophenethyl)thieno[2,3-d]pyrimidin-4-amine]",–,> 50 µM,> 50 µM,> 50 µM,> 50 µM,–,4.24 µM,–,43.6 µM,–,93.2 ± 10.6%,42.9 ± 50.2 µM,> 50 µM,Non-toxic,–,–,"IC50 [4, 13]: > 10 µM"
